# Where “and” joins values, the source holds several entries; their conditions need not be identical. Equal values may be shown once. Read-outs that look alike come from different tables or passages of the source. Marks after values point to notes of the source that are not given here.
# Experiments:
# [1] = test system: AC-MES-induced tonic seizures in CF-1 mice; experiment: Mouse AC-MES assay (60 Hz, 40 mA, 0.2 s); type: in vivo; conditions: for EC50: Compound A PO 0.5 h alone
# Procedure: The efficacy of Compound A and its pharmacological interaction with Lacosamide was evaluated after oral dosing in the mouse maximal electroshock seizure (AC-MES) assay.
# The objective of these studies was to characterize the dose-dependent anticonvulsant activity of Compound A and its pharmacological interaction with Lacosamide in the AC-MES assay in mice after a single oral administration of the compounds. The AC-MES assay is typically responsive to non-selective sodium channel blockers and potassium channel openers, and has been used as a translational animal model for partial onset seizures.
# The anticonvulsant efficacy of Compound A and Lacosamide, and the effect of combining Compound A with Lacosamide were tested in the AC-MES assay in male CF-1 mice following a single PO dose. Plasma and brain samples were obtained to understand the relationship between drug concentration and efficacy.
# AC-MES Assay: The MES test has been extensively used in the search for anticonvulsant substances (Piredda et al., Löscher et al., and White et al.). The MES test is considered a model for generalized tonic-clonic (GTC) seizures and provides an indication of a compound's ability to prevent seizure spread. In the AC-MES model, an electroshock of alternating current (60 Hz, 40 mA) was delivered for 0.2 seconds by corneal electrodes (HSE-HA Rodent Shocker, Harvard Apparatus, model no: 73-0105). CF-1 mice were dosed PO (according to Standard Operating Procedure (SOP) TECH-006) with vehicle or Compound A 0.5 hours before the electroshock assay Immediately prior to the electroshock stimulation, the animals' eyes were anesthetized with a topical application of 0.5% Alcaine solution (proparacaine hydrochloride, one drop per eye). Mice were then restrained, the corneal electrodes applied, and the shock administered. In naïve animals, the seizure is characterized by an initial generalized tonic seizure with hindlimb tonic extensor component. An animal is considered protected from MES-induced seizures upon abolition of the hindlimb tonic extensor component of the seizure and is then scored “0”. […] Mice were euthanized immediately after an initial seizure score assessment following the electroshock for plasma and brain collection.
# Data Processing and Analysis: All statistics were calculated using GraphPad Prism version 8 software. Concentration response curves were generated using the Hill Langmuir equation:
# Y=B+(T−B)×x^n/(IC50^n+x^n), Equation 1
# where: • B=bottom, set as 0. • T=top, set as 1. • n=the Hill coefficient, constrained to less than zero. • IC50=concentration of a compound required for 50% inhibition in vitro.
# All group data is expressed as mean. Between-group differences were analyzed using Kruskal-Wallis followed by Dunn's multiple comparison test.
# Plasma and brain samples were obtained to understand the relationship between drug concentration and efficacy.
# The Blinding and Randomization, Clinical Observations, AC-MES Assay, Sample Collection and Preparation, Plasma and Brain Samples Analysis, and Bioanalysis Procedures in Example 4 were identical to those used in Example 2.
# Sample concentration determination and Data Processing and Analysis in Example 4 was identical to Example 2.
# [2] = Clinical observations / behavioral signs in AC-MES studies; type: in vivo, mouse; conditions: male, CF-1, mouse, in vivo, read-out: plasma concentration of individual mouse showing behavioral signs (tremors, decreased activity, splayed hindlimbs)
# Summary of the method: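 Male CF-1 mice received the test compound by oral gavage at 1–10 mg/kg. Thirty minutes later they were given a 60 Hz, 40 mA, 0.2 s corneal stimulus. At testing, a qualitative observational neurological assessment recorded any departures from normal behaviour as a tolerability screen.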
# in vivo = conditions: mouse
# [3] = test system: 6 Hz psychomotor seizures in CF-1 mice; experiment: Mouse 6 Hz psychomotor seizure assay (34 milliampere, 3 s); type: in vivo
# Procedure: It was evaluated whether the combination of both compounds is favorable or unfavorable for efficacy by dosing Compound A and Levetiracetam alone and in combination, each at a dose that produces sub-maximal efficacy on its own. […] Plasma and brain samples were analyzed to gain an understanding of how the combination of Compound A and Levetiracetam may affect pharmacokinetics and pharmacodynamics. […] 6 Hz Psychomotor Seizure Assay: […] The animal was then securely restrained and a pair of electrodes was applied to the eyes (Electro Convulsive Therapy Unit 57800, Ugo Basile). […] Data Processing and Analysis: Statistical data analysis was performed using GraphPad Prism (version 8.2.1). Dose-response data was analyzed using a Kruskal-Wallis test, followed by Dunn's multiple comparisons. […] Dose- and concentration-response curves were generated using the Hill Langmuir equation: […]
# [4] = dosed in combination with Cenobamate vs alone
compound,measurement,setting,value
"NC(=O)O[C@@H](Cn1ncnn1)c1ccccc1Cl [Cenobamate, reference compound]",fraction of animals seizing,"[1]; Cenobamate 7.5 mg/kg PO, 2 h, alone",3/7
same,fraction of animals seizing,"[1]; Cenobamate 10 mg/kg PO, 2 h, alone",1/8
same,fraction of animals seizing,"[1]; Cenobamate 30 mg/kg PO, 2 h, alone",0/8
same,fraction of animals seizing,"[1]; Cenobamate lower doses of 3 and 5 mg/kg PO, 2 h, alone",7/8
same,Fraction Seizing,"[1]; Study 4D, Cenobamate 3 mg/kg single oral dose, 2 h pre-treatment, vehicle 8/8",8/8
same,Fraction Seizing,"[1]; Study 4D, Cenobamate 10 mg/kg single oral dose, 2 h pre-treatment, vehicle 8/8",1/8
same,Fraction Seizing,"[1]; Study 4D, Cenobamate 30 mg/kg single oral dose, vehicle 8/8",0/8
same,Fraction Seizing,"[1]; Study 4E, Cenobamate 3 mg/kg single oral dose, 2 h pre-treatment, vehicle 8/8",6/7
same,Fraction Seizing,"[1]; Study 4E, Cenobamate 5 mg/kg single oral dose, 2 h pre-treatment, vehicle 8/8",6/7
same,Fraction Seizing,"[1]; Study 4E, Cenobamate 7.5 mg/kg single oral dose, 2 h pre-treatment, vehicle 8/8",3/8
same,fraction of animals seizing,"[1]; Study 4F, Cenobamate 5 mg/kg PO, 2 h, alone",8/8
same,Fraction Seizing,"[1]; Study 4F, Cenobamate 5 mg/kg PO alone, 2 h pre-treatment, vehicle 8/8",8/8
"Cc1cc(N2CCc3cc(F)ccc3C2)cc(C)c1NC(=O)CC(C)(C)C [Compound A, N-[4-(6-fluoro-3,4-dihydro-1H-isoquinolin-2-yl)-2,6-dimethylphenyl]-3,3-dimethylbutanamide]",EC50,"[1]; composite of Studies 4A, 4B, 4C, 4F, read-out: EC50 for plasma",296 nM
same,EC50,"[1]; Mus musculus, po, 0.5 h, composite of Studies 2A, 2B, 2C, read-out: EC50 for brain tissue",471 nM
same,EC50,"[1]; Mus musculus, po, 0.5 h, composite of Studies 2A, 2B, 2C, read-out: EC50 for plasma",300 nM
same,EC50,"[1]; Mus musculus, po, 0.5 h, composite of Studies 4A, 4B, 4C, 4F, read-out: EC50 for brain tissue",470 nM
same,EC50,"[1]; Mus musculus, po, 0.5 h, composite of Studies 4A, 4B, 4C, 4F, read-out: EC50 for plasma",300 nM
same,Fraction Seizing,"[1]; Study 2A, Compound A 1 mg/kg PO, 0.5 h",8/8
same,Fraction Seizing,"[1]; Study 2A, Compound A 5 mg/kg PO, 0.5 h",7/8
same,Fraction Seizing,"[1]; Study 2A, Compound A 10 mg/kg PO, 0.5 h",3/8
same,Fraction Seizing,"[1]; Study 2B, Compound A 5 mg/kg PO, 0.5 h",0/8
same,Fraction Seizing,"[1]; Study 2B, Compound A 7.5 mg/kg PO, 0.5 h",0/7
same,Fraction Seizing,"[1]; Study 2B, Compound A 10 mg/kg PO, 0.5 h",1/9
same,Fraction Seizing,"[1]; Study 2C, Compound A 3 mg/kg PO, 0.5 h, alone",2/8
same,fraction of animals seizing,"[1]; Study 4A, Compound A 1 mg/kg PO, 0.5 h",8/8
same,fraction of animals seizing,"[1]; Study 4A, Compound A 5 mg/kg PO, 0.5 h",7/8
same,fraction of animals seizing,"[1]; Study 4A, Compound A 10 mg/kg PO, 0.5 h",3/8
same,Fraction Seizing,"[1]; Study 4A, Compound A 1 mg/kg single oral dose, 30 min pre-treatment, vehicle 8/8",8/8
same,Fraction Seizing,"[1]; Study 4A, Compound A 5 mg/kg single oral dose, 30 min pre-treatment, vehicle 8/8",7/8
same,Fraction Seizing,"[1]; Study 4A, Compound A 10 mg/kg single oral dose, 30 min pre-treatment, vehicle 8/8",3/8
same,fraction of animals seizing,"[1]; Study 4B, Compound A 5 mg/kg PO, 0.5 h",0/8
same,fraction of animals seizing,"[1]; Study 4B, Compound A 10 mg/kg PO, 0.5 h",1/9
same,Fraction Seizing,"[1]; Study 4B, Compound A 5 mg/kg single oral dose, vehicle 8/8",0/8
same,Fraction Seizing,"[1]; Study 4B, Compound A 7.5 mg/kg single oral dose, vehicle 8/8",0/7
same,Fraction Seizing,"[1]; Study 4B, Compound A 10 mg/kg single oral dose, vehicle 8/8",1/9
same,fraction of animals seizing,"[1]; Study 4C, Compound A 3 mg/kg PO, 0.5 h",2/8
same,Fraction Seizing,"[1]; Study 4C, Compound A 3 mg/kg single oral dose, vehicle 8/8",2/8
same,fraction of animals seizing,"[1]; Study 4F, Compound A 2 mg/kg PO, 0.5 h, alone",5/8
same,Fraction Seizing,"[1]; Study 4F, Compound A 2 mg/kg PO alone, 0.5 h pre-treatment, vehicle 8/8",5/8
same,"increase in the potency of Compound A, brain tissue",[1]; [4],14.2 fold
same,"increase in the potency of Compound A, plasma",[1]; [4],33.3 fold
same,concentration at 30 min,"[2]; 7.5 mg/kg, Study 2B, Compound A 7.5 mg/kg group",746 nM
same,concentration at 30 min,"[2]; 7.5 mg/kg, Study 4B, Compound A 7.5 mg/kg group",750 nM
same,concentration at 30 min,"[2]; 10 mg/kg, Study 2A, Compound A 10 mg/kg group",391 nM
same,concentration at 30 min,"[2]; 10 mg/kg, Study 4A, Compound A 10 mg/kg group",390 nM
same,concentration at 30 min,"[2]; Study 2B, Compound A 10 mg/kg group, two mice",608 nM
same,concentration at 2 h,in vivo,30 nM and 11.1 ng/mL
same,ED20,"[3]; Compound A PO 1 h, Study 3A dose response curve",4 mg/kg and 4.13 mg/kg
same,ED50,"[3]; Mus musculus, Compound A PO 1 h, Study 3A dose response curve",6.48 mg/kg
same,EC50,"[3]; Mus musculus, Compound A PO 1 h, Study 3A, read-out: brain EC50",540 nM
same,EC50,"[3]; Mus musculus, Compound A PO 1 h, Study 3A, read-out: plasma EC50",350 nM
same,Fraction Seizing,"[3]; Studies 3B+3C combined, Compound A 4 mg/kg PO 1 h alone",13/14*
same,Fraction Seizing,"[3]; Study 3A, Compound A 1 mg/kg PO, 1 h",8/8
same,Fraction Seizing,"[3]; Study 3A, Compound A 3 mg/kg PO, 1 h",8/8
same,Fraction Seizing,"[3]; Study 3A, Compound A 5 mg/kg PO, 1 h",5/8
same,Fraction Seizing,"[3]; Study 3A, Compound A 8 mg/kg PO, 1 h",3/8
same,Fraction Seizing,"[3]; Study 3B, Compound A 4 mg/kg PO 1 h alone",8/8
same,Fraction Seizing,"[3]; Study 3C, Compound A 4 mg/kg PO 1 h alone",5/6*
same,animals protected from seizing,"[3]; Study 3C, Compound A 4 mg/kg PO alone",1/7
"COC[C@@H](NC(C)=O)C(=O)NCc1ccccc1 [Lacosamide, reference compound]",Fraction Seizing,"[1]; Study 2A, Lacosamide 6 mg/kg PO, 2 h",8/8
same,Fraction Seizing,"[1]; Study 2A, Lacosamide 8 mg/kg PO, 2 h",8/8
same,Fraction Seizing,"[1]; Study 2B, Lacosamide 10 mg/kg PO, 2 h",8/8
same,Fraction Seizing,"[1]; Study 2C, Lacosamide 10 mg/kg PO, 2 h, alone",6/8
same,Fraction Seizing,"[1]; Study 2D, Lacosamide 6 mg/kg PO, 2 h",8/8
same,Fraction Seizing,"[1]; Study 2D, Lacosamide 20 mg/kg PO, 2 h",3/8
